Holding throughout (format): cell-based
One assay deals with NHEKs. The assay can be described thus: poly(I:C)-induced TNF-α and IL-6 expression in NHEKs, real-time RT-PCR. The method, then:
NHEKs were seeded in 24-well plates to grow to 70˜80% confluence, 2 ug/ml poly(I:C) were added. Different concentrations of the lipopeptide as Formula (1) in Example 1 were used to treat NHEKs. After 24 h, total RNA was extracted and cDNA was generated to detect the TNF-α and IL-6 expression by using real-time RT-PCR. […]
A general note: Quantitative PCR measures a nucleic acid by following its amplification.

For the next assay, the system named is β-catenin. As to the kind of experiment: β-catenin translocation into the nucleus in NHEKs. Conditions: LiCl, nucleocytoplasmic separation.
For a further assay, the system named is keratinocytes (NHEK). The assay can be described thus: OVA-stimulated keratinocytes (NHEK), real-time RT-PCR. Conditions: NHEKs treated with PPARγ inhibitor. The method, then: To mimics the condition of atopic dermatitis keratinocytes was stimulated by ovalbumin (OVA). To test the inhibitory effect of the lipopeptide on inflammatory response in atopic dermatitis, PBS, OVA, lipopeptide, lipopeptide plus OVA were used to stimulate keratinocytes (NHEK) and RNA was extracted after 24-hour stimulation. The expression of TNF-α and IL-6 was analyzed by real-time RT-PCR.

Another assay relates to PPAR-γ and p65. As to the kind of experiment: interaction between PPAR-γ and p65 in NHEKs, co-immunoprecipitation. Particulars: poly(I:C) 4 hours or 12 hours, immunoprecipitation with p65 antibody. The method, then:
Example 4 illustrates that poly(I:C) can induce p65 phosphorylation and translocation, and poly(I:C) induces the inflammatory response through PPAR-γ. The aim of Example 5 is to illustrate the interaction between the translocated p65 and PPAR-γ in the nucleus. NHEKs were treated with poly(I:C) for 4 hours or 12 hours. Whole-cell extracts were prepared by using lysis buffer containing NP40 and incubated with the p65 antibody at 4° C. for overnight. Protein AG beads were added and incubated at 4° C. for 1-2 hours. Beads were then washed twice with washing buffer. The immunoprecipitates were eluted with 20 ul 2× sodium dodecyl sulfate (SDS) loading buffer and separated by PAGE. The proteins were transferred to nitrocellulose membrane and probed with PPAR-γ antibody.

The test system of assay [1] is p65. The assay can be described thus: p65 translocation into the nucleus in NHEKs (immunofluorescence, Western blot of nuclear proteins). Particulars: poly(I:C) alone; for p65 translocation into the nucleus: immunofluorescence. The protocol:
NHEKs were treated with PBS or poly(I:C) for 4 hours, and fixed with formaldehyde for 15 min followed by adding ice-cold 0.25% TritonX-100 and hydrogen peroxide. Cells were incubated with anti-p65 antibody at 4° C. for overnight after blocked with BSA for 0.5 hour. Next day, the cells were incubated with the second antibody (FITC-goat anti Rabbit IgG) and visualized under the microscope.
NHEKs were treated with PBS, lipopeptide, poly(I:C) with or without lipopeptide for 12 hours, and fixed with formaldehyde for 15 min followed by adding ice-cold 0.25% TritonX-100 and hydrogen peroxide. Cells were stained with anti-p65 antibody for overnight after blocked with BSA for 0.5 h. Then the cells were incubated with the second antibody (FITC-goat anti Rabbit IgG) and visualized under the microscope.
NHEKs were treated with PBS, poly(I:C), lipopeptide, poly(I:C) with lipopeptide for 12 hours. Proteins from nucleus were isolated and separated by PAGE. The p65 in the nucleus was detected by Western blot. […] Thus the lipopeptide has no effect on poly(I:C)-induced p65 translocation into the nucleus.
On the technique in general: A western blot detects proteins with antibodies after separation by electrophoresis.

The subject of assay [2] is p65. The assay can be described thus: p65 phosphorylation in NHEKs, Western blot. Particulars: poly(I:C) alone, 4 hours and 12 hours. The protocol:
NHEKs were treated with PBS, poly(I:C), lipopeptide, poly(I:C) with lipopeptide for 4 hours or 12 hours. And then RIPA lysate was added to lyse the cell. The protein concentration was detected by using BCA protein assay kit, and 40 ug of proteins were separated by SDS-PAGE. The effects of the lipopeptide on p65 phosphorylation were detected by Western blot.

The mark [3] stands for this setting: NHEKs treated with poly(I:C) alone, 24 h.

“Also recorded” adds a separate entry of the source.

Take `N.S=C(S)N1CCCC1` [PDTC]: in the assay with NHEKs (NHEKs, 24 h), the “expression of IL-6 induced by poly(I:C)” value is on record as “inhibited” and the “expression of TNF-α induced by poly(I:C)” value is recorded as “inhibited”.

On to `[Cl-].[Li+]` [LiCl], for which the β-catenin translocation entry in the assay on β-catenin is given as “induces”. In addition, the “poly(I:C)-induced inflammatory response” value with NHEKs (NHEKs, 24 hours) was “inhibits”.

`O=C(Nc1ccccc1)c1cc([N+](=O)[O-])ccc1Cl` [GW9662]: in the assay on keratinocytes (NHEK), the “OVA-induced expression of inflammatory factor” value was “significantly decreased”. Moreover, in the assay on NHEKs (NHEKs, 24 h), the “expression of IL-6 induced by poly(I:C)” value is recorded as “significantly inhibited” and the “expression of TNF-α induced by poly(I:C)” value is recorded as “significantly inhibited”.

For poly(I:C), in the assay on PPAR-γ and p65, the “interaction between PPAR-γ and P65” value is recorded as “significantly induces”. In the assay on NHEKs (setting [3]), the IL-6 expression result is reported as “dramatically induces; also recorded: dramatically increases” and the TNF-α expression entry is reported as “dramatically induces; also recorded: dramatically increases”. Moreover, the “p65 translocation into the nucleus” value in the assay with p65 [1] (4 hours) was “obviously induces”. Moreover, the “level of p65 in the nucleus” value in the assay with p65 [1] (12 hours, Western blot) was “significantly increases”. Besides, the “p65 translocation into the nucleus” value in the assay with p65 [1] (12 hours) is recorded as “obviously induces”. In addition, the p65 phosphorylation result with p65 [2] was “significantly induces”.

These data come from patent publication US10072051B2, “Anti-inflammatory lipopeptide and preparing method and application thereof” (EAST CHINA NORMAL UNIVERSITY, priority 2012, dated 2018).
